According to PubChem BioAssay AID330 (DTP/NCI, 2004):
Several values for one entry are separate records, joined by “and”; a condition that tells them apart may be missing. Identical values can stand only once. Inconclusive results and toxic doses are left out. Rule for the calls: active = survival T/C of 150% or more; inactive = T/C below 125% in these data.

System: P388 leukemia ip, CD2F1 mice, survival T/C
Assay: NCI In Vivo Anticancer Drug Screen. Data for tumor model P388 Leukemia (intraperitoneal) in CD2F1 (CDF1) mice
Conditions: endpoint: median survival time, higher = longer survival
In short: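 Mice carrying the transplanted tumor received test compound or vehicle. Survival was recorded in each group, and the value is the treated-group measurement divided by that of the vehicle-treated control group.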

[1] = dose: 50.0 mg/kg/injection, schedule: Q01DX005 (ip), vehicle: saline with Tween-80
[2] = dose: 100.0 mg/kg/injection, schedule: Q01DX005 (ip), vehicle: saline with Tween-80
[3] = dose: 100.0 mg/kg/injection, schedule: Q01DX009 (ip), vehicle: saline with Tween-80
[4] = dose: 60.0 mg/kg/injection, schedule: Q01DX005 (ip), vehicle: saline with Tween-80
[5] = dose: 120.0 mg/kg/injection, schedule: Q01DX005 (ip), vehicle: saline with Tween-80
[6] = dose: 240.0 mg/kg/injection, schedule: Q01DX005 (ip), vehicle: saline with Tween-80
[7] = dose: 6.25 mg/kg/injection, schedule: Q01DX005 (ip), vehicle: Klucel (hydroxypropylcellulose) (HPC)
[8] = dose: 12.5 mg/kg/injection, schedule: Q01DX005 (ip), vehicle: Klucel (hydroxypropylcellulose) (HPC)
[9] = dose: 25.0 mg/kg/injection, schedule: Q01DX005 (ip), vehicle: Klucel (hydroxypropylcellulose) (HPC)
[10] = dose: 200.0 mg/kg/injection, schedule: Q01DX005 (ip), vehicle: saline with Tween-80
[11] = dose: 25.0 mg/kg/injection, schedule: Q01DX005 (ip), vehicle: saline with Tween-80
[12] = dose: 50.0 mg/kg/injection, schedule: Q01DX005 (ip), vehicle: Klucel (hydroxypropylcellulose) (HPC)
[13] = dose: 100.0 mg/kg/injection, schedule: Q01DX005 (ip), vehicle: Klucel (hydroxypropylcellulose) (HPC)
[14] = dose: 200.0 mg/kg/injection, schedule: Q01DX005 (ip), vehicle: Klucel (hydroxypropylcellulose) (HPC)
[15] = dose: 50.0 mg/kg/injection, schedule: Q01DX009 (ip), vehicle: Klucel (hydroxypropylcellulose) (HPC)
[16] = dose: 100.0 mg/kg/injection, schedule: Q01DX009 (ip), vehicle: Klucel (hydroxypropylcellulose) (HPC)
[17] = dose: 200.0 mg/kg/injection, schedule: Q01DX009 (ip), vehicle: Klucel (hydroxypropylcellulose) (HPC)
[18] = dose: 100.0 mg/kg/injection, schedule: Q04DX003 (ip), vehicle: saline with Tween-80
[19] = dose: 200.0 mg/kg/injection, schedule: Q04DX003 (ip), vehicle: saline with Tween-80
[20] = dose: 400.0 mg/kg/injection, schedule: Q04DX003 (ip), vehicle: saline with Tween-80

Measured: T/C

Cn1c2c(c(=O)n(C)c1=O)N1c3c(n(C)c(=O)n(C)c3=O)NN1C(c1ccccc1)=N2
inactive: dose: 100.0 mg/kg/injection, schedule: Q01DX001 (ip), vehicle: saline with Tween-80 95 % of control | dose: 200.0 mg/kg/injection, schedule: Q01DX001 (ip), vehicle: saline with Tween-80 88 % of control | dose: 400.0 mg/kg/injection, schedule: Q01DX001 (ip), vehicle: saline with Tween-80 89 % of control

Cc1cc(OP2(=O)Nc3ccccc3-c3ccccc3N2)ccc1Cl
inactive: [1] 98 % of control | [2] 89 % of control

Nc1ccc2c(c1)C(=O)CCC2
inactive: dose: 50.0 mg/kg/injection, schedule: Q01DX009 (ip), vehicle: saline with Tween-80 103 % of control | [3] 99 % of control | dose: 200.0 mg/kg/injection, schedule: Q01DX009 (ip), vehicle: saline with Tween-80 100 % of control

COC(=O)c1nc(=S)[nH]c(C(=O)OC)c1C(=O)c1cccnc1
inactive: dose: 60.0 mg/kg/injection, schedule: Q01DX005 (ip), vehicle: saline 108 % of control | dose: 120.0 mg/kg/injection, schedule: Q01DX005 (ip), vehicle: saline 110 % of control

O=C(N/N=C/c1ccc(C(F)(F)F)cc1)c1ccncc1
inactive: dose: 15.0 mg/kg/injection, schedule: Q01DX005 (ip), vehicle: saline with Tween-80 106 % of control | dose: 30.0 mg/kg/injection, schedule: Q01DX005 (ip), vehicle: saline with Tween-80 101 % of control | [4] 101 % of control and 97 % of control | [5] 100 % of control | [6] 100 % of control

CCOC(=O)[C@H]1C(CC)=NOC1C (stereo partly specified)
inactive: [4] 102 % of control | [5] 102 % of control | [6] 101 % of control

COP(=O)(CS(=O)(=O)Oc1ccc(S(C)(=O)=O)cc1)OC
inactive: dose: 3.12 mg/kg/injection, schedule: Q01DX005 (ip), vehicle: Klucel (hydroxypropylcellulose) (HPC) 97 % of control | [7] 100 % of control | [8] 99 % of control | [9] 97 % of control

CCO/C(C)=N/NC(=O)c1n[nH]c2ccccc12
inactive: [1] 92 % of control | [2] 91 % of control | [10] 90 % of control

COc1cc2ccc3c(c2cc1OC)C=[N+](C)CC3
inactive: dose: 44.0 mg/kg/injection, schedule: Q01DX009 (ip), vehicle: saline with Tween-80 100 % of control | dose: 66.0 mg/kg/injection, schedule: Q01DX009 (ip), vehicle: saline with Tween-80 109 % of control | [3] 109 % of control | dose: 150.0 mg/kg/injection, schedule: Q01DX009 (ip), vehicle: saline with Tween-80 113 % of control

COc1ccc(S(=O)(=O)NN=C(C(=O)O)C(=O)O)cc1
inactive: [11] 102 % of control | [1] 102 % of control | [2] 95 % of control | [10] 109 % of control

COc1cc([N+](=O)[O-])c(S(=O)(=O)O)cc1NS(=O)(=O)c1ccc(C)cc1
inactive: [4] 110 % of control | [5] 101 % of control | [6] 97 % of control

FC(F)(F)c1cc(NC(=S)SCc2ccc(Cl)cc2)ccc1Cl
inactive: dose: 50.0 mg/kg/injection, schedule: Q01DX009 (ip), vehicle: suspension in saline 103 % of control | dose: 100.0 mg/kg/injection, schedule: Q01DX009 (ip), vehicle: suspension in saline 90 % of control | dose: 200.0 mg/kg/injection, schedule: Q01DX009 (ip), vehicle: suspension in saline 93 % of control

CCC1c2ccc3cc(OC)ccc3c2CCC1(C)C(=O)O (stereo unspecified)
inactive: [12] 100 % of control | [13] 98 % of control | [14] 100 % of control

CC1=CC23C(=O)[C@@H](C=C(COC(=O)c4ccccc4)[C@@H](O)[C@]2(O)[C@H]1OC(=O)c1ccccc1)[C@H]1[C@@H](C[C@H]3C)C1(C)C
inactive: dose: 12.5 micrograms/kg/injection, schedule: Q01DX009 (ip), vehicle: saline with Tween-80 113 % of control | dose: 25.0 micrograms/kg/injection, schedule: Q01DX009 (ip), vehicle: saline with Tween-80 102 % of control | dose: 50.0 micrograms/kg/injection, schedule: Q01DX009 (ip), vehicle: saline with Tween-80 106 % of control | dose: 100.0 micrograms/kg/injection, schedule: Q01DX009 (ip), vehicle: saline with Tween-80 119 % of control | dose: 200.0 micrograms/kg/injection, schedule: Q01DX009 (ip), vehicle: saline with Tween-80 113 % of control | dose: 281.0 micrograms/kg/injection, schedule: Q01DX009 (ip), vehicle: saline + alcohol 108 % of control | dose: 468.0 micrograms/kg/injection, schedule: Q01DX009 (ip), vehicle: saline + alcohol 89 % of control | dose: 780.0 micrograms/kg/injection, schedule: Q01DX009 (ip), vehicle: saline + alcohol 89 % of control

O=C1OCC/C1=C/O/C=C1\CCOC1=O
inactive: [4] 106 % of control | [5] 119 % of control

CSc1cccc(NC(=S)NN/C(=N/S(=O)(=O)c2ccccc2)N2CCCC2)c1
inactive: [15] 102 % of control | [16] 101 % of control | [17] 99 % of control

CCCCCCCCCCCCCCCCC1(O)OC(=O)C(C)=C1C (stereo unspecified)
inactive: dose: 12.5 mg/kg/injection, schedule: Q04DX003 (ip), vehicle: saline with Tween-80 100 % of control | dose: 25.0 mg/kg/injection, schedule: Q04DX003 (ip), vehicle: saline with Tween-80 108 % of control | dose: 50.0 mg/kg/injection, schedule: Q04DX003 (ip), vehicle: saline with Tween-80 106 % of control

O.O.[Cu+2].[Cu+2].[NH-]CCC(=O)[N-]C(Cc1cnc[nH]1)C(=O)O.[NH-]CCC(=O)[N-]C(Cc1cnc[nH]1)C(=O)O (stereo unspecified)
inactive: [7] 98 % of control | [8] 97 % of control | [9] 106 % of control

OC1C2CCCC1C(c1ccccc1)NC2c1ccccc1 (stereo unspecified)
inactive: dose: 100.0 mg/kg/injection, schedule: Q04DX003 (ip), vehicle: saline 100 % of control and 94 % of control | dose: 200.0 mg/kg/injection, schedule: Q04DX003 (ip), vehicle: saline 100 % of control and 94 % of control | dose: 400.0 mg/kg/injection, schedule: Q04DX003 (ip), vehicle: saline 100 % of control

CC(C)c1ccc(C(CC(=O)c2ccccc2)C(C(=O)O)c2ccccc2)cc1 (stereo unspecified)
inactive: [15] 97 % of control | [16] 89 % of control | [17] 89 % of control

COc1ccc(N=C(CC(C)C)C2C(=O)c3ccccc3C2=O)cc1
inactive: [12] 100 % of control | [13] 109 % of control | [14] 104 % of control

N#Cc1cnn(-c2cc(Cl)c(Cl)cc2Cl)c1N
inactive: [18] 99 % of control | [19] 103 % of control | [20] 111 % of control

CCC1C2Cc3ccc(O)cc3C1(CC)CCN2C (stereo unspecified)
inactive: dose: 6.25 mg/kg/injection, schedule: Q01DX005 (ip), vehicle: saline with Tween-80 99 % of control | dose: 12.5 mg/kg/injection, schedule: Q01DX005 (ip), vehicle: saline with Tween-80 99 % of control | [11] 95 % of control | [12] 103 % of control | [1] 100 % of control | [13] 106 % of control

OCC1CC=CCC1 (stereo unspecified)
inactive: [18] 90 % of control | [19] 100 % of control | [20] 90 % of control

O=c1cc2n(c(=O)n1-c1ccccc1)CCCC2
inactive: [4] 102 % of control | [5] 100 % of control | [6] 103 % of control

COc1ccc(OC)c(C2N(C)CCCN2C)c1
inactive: dose: 6.25 mg/kg/injection, schedule: Q01DX009 (ip), vehicle: saline sonified 95 % of control | dose: 12.5 mg/kg/injection, schedule: Q01DX009 (ip), vehicle: saline sonified 90 % of control | dose: 25.0 mg/kg/injection, schedule: Q01DX009 (ip), vehicle: saline sonified 100 % of control

CC(=O)OCC1OC(OC(C)=O)C(NC(=S)NCC(=O)c2ccc(C)cc2)C(OC(C)=O)C1OC(C)=O (stereo unspecified)
inactive: [1] 99 % of control | [2] 100 % of control | [10] 101 % of control
